Several values for one entry are separate records, joined by “and”; a condition that tells them apart may be missing. Identical values can stand only once.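 All cell lines were grown in 96-well plates and treated with compound for 48 hours. At the GI50, growth is halved. The concentration for full growth arrest is given as TGI.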
Experiments:
Assay in all cases: NCI tumour cell line growth inhibition, 48 h
[1] = test system: K-562 leukemia
[2] = test system: NCI-H522 lung
[3] = test system: KM12 colon
[4] = test system: M14 melanoma
[5] = test system: MOLT-4 leukemia
[6] = test system: EKVX NSCLC
[7] = test system: OVCAR-3 ovarian
[8] = test system: SNB-19 CNS
[9] = test system: SK-MEL-5 melanoma
[10] = test system: SF-539 CNS

| Compound | GI50 [1] | GI50 [2] | TGI [2] | GI50 [3] | TGI [3] | GI50 [4] | TGI [4] | GI50 [5] | TGI [5] | GI50 [6] | TGI [6] | GI50 [7] | TGI [7] | GI50 [8] | TGI [8] | GI50 [9] | TGI [9] | GI50 [10] | TGI [10] | TGI [1] |
| --- | --- | --- | --- | --- | --- | --- | --- | --- | --- | --- | --- | --- | --- | --- | --- | --- | --- | --- | --- | --- |
| O=C1/C(=C(/c2ccccc2)N2CCOCC2)Cc2ccccc21 | 3.42 µM | 0.492 µM | 1.89 µM | 2.22 µM | 5.49 µM | 1.84 µM | 4.67 µM | > 100 µM | > 100 µM | 3.21 µM | 13.5 µM | 0.479 µM | 1.5 µM | 10.6 µM | 23.8 µM | 2.25 µM | 6.73 µM | 1.9 µM | 3.91 µM |  |
| CC1=CC(=O)C=CC1=O | 3 µM and 4.38 µM | 11.2 µM and 1.67 µM | 24 µM and 4.1 µM | 14.1 µM and 16.5 µM | 27.7 µM and 32.1 µM | 22.7 µM and 20.5 µM | 67.1 µM and 48.5 µM | 3.29 µM and 3.22 µM |  | 17 µM | 39.6 µM | 3.96 µM | 13.3 µM | 36.1 µM | 89.4 µM | 29.3 µM and 13.4 µM | 26.3 µM | 29.3 µM and 17 µM | 31.4 µM |  |
| CCCC(CCC)NCC(O)c1cc(-c2ccc(C(F)(F)F)cc2)nc(C(F)(F)F)c1 (stereo unspecified) | 1.93 µM | 1.71 µM | 3.26 µM | 1.93 µM | 3.42 µM | 1.75 µM | 3.32 µM | 1.89 µM | 3.84 µM | 2.01 µM | 3.81 µM | 1.93 µM | 3.38 µM | 1.79 µM | 3.42 µM | 1.73 µM | 3.1 µM | 1.67 µM | 3.26 µM | 3.8 µM |
| Cc1cc(C)c(NC(=O)c2sc3nc4c(cc3c2N)C(=O)CCC4)c(C)c1 | 1.9 µM | 0.6 µM | 3.06 µM | 2.8 µM | > 100 µM | 2.31 µM | > 100 µM | 5.68 µM | > 100 µM | 4.28 µM | > 100 µM | 2.46 µM | 8.62 µM | 6.12 µM | > 100 µM | 0.998 µM | 13.8 µM | 2.59 µM | > 30.6 µM | > 100 µM |
| CN(C)CCNc1ccc(CO)c2oc3ccc(O)cc3c(=O)c12 |  |  | 17.1 µM |  | 40 µM |  | 29.5 µM |  | 14.3 µM |  | 47.5 µM |  | 42.1 µM |  | 55.9 µM |  | 27.9 µM |  | 25.1 µM | 32.4 µM |
| Cc1ccc(NC(=O)c2cccc(C(C)(C)C#N)c2)cc1Nc1ccc2ncn(C)c(=O)c2c1 | 0.484 µM | 3.88 µM | > 100 µM | 1.66 µM | > 100 µM | 0.019 µM |  | 5.2 µM | > 100 µM | 3.74 µM | > 100 µM | 13.4 µM | > 100 µM | 5.48 µM | > 100 µM | 1.26 µM | 20 µM | 3.32 µM | > 100 µM | > 79.3 µM |
| Cc1ccc(N=C/C=C(\Nc2ccc(C)cc2)c2ccc(Cl)cc2)cc1 | 4.75 µM | 21.9 µM | 70 µM | 5.36 µM | 46.7 µM | 4.96 µM | 22.5 µM | 4.25 µM | > 100 µM | 14 µM | 36.2 µM | 8.06 µM | 77.9 µM | 17.3 µM | 70.6 µM | 6 µM | 20.7 µM | 6.1 µM | 26.6 µM | > 100 µM |
| COCC[C@H]1CCC/C=C/[C@@H]2C[C@H](O)C[C@H]2[C@H](O)/C=C/C(=O)O1 | 0.313 µM | 0.21 µM | 0.557 µM | 0.034 µM | 0.118 µM | 0.0436 µM | > 100 µM | 0.353 µM | > 100 µM | 0.114 µM | > 100 µM | 0.0505 µM | 0.273 µM | 0.191 µM | > 100 µM | 0.0172 µM | 0.0319 µM | 0.213 µM | > 100 µM | > 100 µM |
| CNC(=S)/N=C(\N)N(C)C |  |  | > 100 µM |  | > 100 µM |  | > 100 µM |  | > 100 µM |  | > 100 µM |  | > 100 µM |  | > 100 µM |  | > 100 µM |  | > 100 µM | > 100 µM |
| CC(=O)C1Cn2c(nc3ccccc32)C[Se]1 (stereo unspecified) |  |  | 10.3 µM |  | 10.7 µM |  | 4.96 µM |  | 6.79 µM |  | 28.7 µM |  | 4.5 µM |  | 16 µM |  | 3.61 µM |  | 4.89 µM | 31.7 µM |
| Nc1ccccc1C#C/C=C\C#Cc1ccccc1N | 0.583 µM | 16.3 µM | 44.5 µM | 3.26 µM | 27.6 µM | 5.04 µM | 22.7 µM | 1.04 µM | 17.3 µM | 17 µM | 69.5 µM | 1.72 µM | 9.1 µM | 48.9 µM | > 100 µM | 1.95 µM | 17.5 µM | 10.1 µM | 26.6 µM | 14.2 µM |
| CN(C)CCC1(C2=CCCC2)CC/C(=C\c2ccc(Cl)cc2)C1=O (stereo unspecified) |  |  | 18.8 µM |  | 23.6 µM |  | 3.84 µM |  | 6.02 µM |  | 18.8 µM |  | 26.8 µM |  | 24.1 µM |  | 4.07 µM |  | 25.7 µM | > 23.2 µM |
| CC1=CC(C)(C)N=C2SC(c3ccc(N)cc3)=NN12 |  |  | > 100 µM |  | > 100 µM |  | > 100 µM |  | > 100 µM |  | > 100 µM |  | > 100 µM |  | > 100 µM |  | > 100 µM |  | > 100 µM | > 66 µM |
| O=C(Nc1n[nH]c2cc(-c3ccccc3)ccc12)C1CC1 | 1.42 µM | 1.29 µM | > 25 µM | 2.11 µM | > 25 µM | 15.4 µM | > 25 µM | > 16.6 µM | > 25 µM | 24.4 µM | > 25 µM | 5.34 µM | 16.9 µM | > 19.8 µM | > 25 µM | 8.75 µM | > 25 µM | 13 µM | > 25 µM | > 25 µM |
| c1cnn(CN(Cn2cccn2)Cn2cccn2)c1 |  |  | > 100 µM |  | > 100 µM |  | > 100 µM |  | > 100 µM |  | > 100 µM |  | > 100 µM |  | > 100 µM |  | > 100 µM |  | > 100 µM | > 100 µM |
